# Results reported in patent US9975852B2, “Quinoline sulfonyl derivatives and uses thereof” (Health Sciences North Research Institute, priority 2013, dated 2018).
# How the values were obtained:
# [1] = Organ weight and histology (liver, spleen, kidney, lung) of ATH490 mice
# Experimental: All values are presented as mean±S.E.M. Analyses were performed using GraphPad Prism software (GraphPad Software). Comparison between the groups was made by p value determination using one-way ANOVA. A p value of <0.05 was considered to be statistically significant. […] Each organ weight (%) is normalized with total body weight (BW).
# The H&E stained slides were taken with a 20× objective using a Zeiss EPI-fluorescent microscope (bright field). […] At least 10 fields for each slide (one slide per mouse, and 3 mice per group) were examined.
# Images were taken with a 10× objective using a Zeiss EPI-fluorescent microscope. […] Drug administration was carried out as described in Table IX and in the Materials and Methods section herein with respect to Animal Studies.
# The images of the H&E stained renal tissues were taken with a Zeiss EPI-fluorescent (bright field) microscope using a 10× objective.
# HeLa S3 cells = assay: Western blot, immunostaining and immunoprecipitation of cell cycle proteins, HeLa S3 cells; format: cell-based
# Source text: (§1) All immunocytochemistry experiments were visualized by confocal microscopy using a Zeiss 510 Meta laser scanning microscope (Carl Zeiss) equipped with a 63× objective lens, unless otherwise specified herein. Three lasers were utilized for excitation with the following band pass filter settings used for detection: Argon 488 nm (band pass 505-530), HeNe 543 nm (long pass 560) and 633 nm (long pass 650). All images were captured and analyzed using LSM 510 software included with the microscope (LSM Image Examiner™, Carl Zeiss).
# (§2) The synchronization at the G1/S border (more accurately at the beginning of S phase) was achieved by double thymidine block (DT). Briefly, exponentially growing cells are treated with 2.0 mM thymidine for 18 hours, followed by incubation for 11 hours in drug-free complete medium, by which time most cells are at mid-late G1 phase. The cells are then incubated for another 14 hours in 2.0 mM thymidine to arrest them at the G1/S border. To arrest cells at the G2/M phase, cells were maintained for 18 hours in complete medium containing nocodazole (50 ng/ml). Both these synchronization are reversible.
# Under the experimental conditions, some of the cells were still stuck at G2/M until 8 hour post-drug treatment. “Asynchr” denotes asynchronous cells. 0 hour is the end of nocodazole treatment (i.e., 18 hours in 50 ng/ml nocodazole). At 0 hour, cells were released into complete medium in the absence (control) or presence of 5 μM VR-23 for 2, 4, or 8 hours as indicated. […] Extracts prepared from HeLa S3 cells treated with VR-23 in early-S phase (0 hour post double thymidine treatment), G2/M (arrested by nocodazole), or late G1 (6 hour post nocodazole) were subjected to Western blotting with anti-PARP1 antibody to detect proteins associated with apoptotic activities.
# Evaluation of apoptosis in VR-23 treated and untreated control cells (FIG. 8). Treatment of cells in late G1 with VR-23 delayed their progression into S phase. HeLa S3 cells arrested in G2-M phase by nocodazole (50 ng/ml, 18 hours) were incubated in drug-free complete medium for 2, 4 or 6 hours (numbers in brackets), followed by incubation for 2 or 6 hours (+h) in the absence (control) (FIG. 8A) or presence (FIG. 8B) of 10 μM VR-23. […] By (6)+6 hours, most of the control cells already progressed into S phase, but VR-23-treated cells were still in G1 (long and short arrows, respectively). […] Under normal growth conditions, cyclin E expression peaks in late G1 and rapidly levels off as a cell enters S phase, at which time cyclin A expression rapidly increases. […] Thus cells treated with VR-23 were still in G1 phase because cyclin E was not degraded and cyclin A was not induced in a timely manner.
# HeLa S3 cells arrested at G1/S by DT were released into cell cycle for 1-3 hours in the absence (control) (FIG. 16A) or presence (FIG. 16B) of VR-23. Cells were then fixed and immunostained with antibodies specific for γ-tubulin and cyclin E, or DNA stained. […] In contrast, cyclin E was localized to the centrosomes by 3 hour post-DT in cells exposed to VR-23 (see inset boxes of FIG. 16B). […] It is noted that proteasomes are localized to the centrosomes^12,13.
# HeLa S3 cells synchronized at the G1/S border by DT were released into cell cycle at time 0 hour. Cells were then allowed to progress through S phase for 1 hour (FIG. 17A) or 3 hours (FIG. 17B) in the absence (control) or presence of VR-23. Plk1 was not localized to the centrosome at 1 hour post-DT either in VR-23 treated or untreated control cells. However, unlike in the control, all of the (amplified) centrosomes in cells exposed to VR-23 contained Plk1 by 3 hour post-DT. It was occasionally observed that one of the two centrosomes in untreated cells also contained plk1 at 3 hour post-DT (dotted arrow).
# HeLa S3 cells synchronized at G1/S by DT were released into normal growth medium at 0 hour for 1-3 hours in absence (control) (FIG. 18A) or the presence (FIG. 18B) of VR-23. […]
# MCF7 cells = assay: Clonogenic assay using MCF7 cells; format: cell-based, human; conditions: for Average colony number: series with non-treated control 34
# Experimental: The clonogenic assay was carried out as described in Santi and Lee (2011).^11
# Antiproliferative activity of VR-23 was evaluated on a variety of different cell lines, alone or in combination with Bortezomib, by way of SRBSRB or clonogenic assays.
# MCF10A non-cancer cells = assay: Confocal microscopy of centrosomes, MCF10A non-cancer cells; format: cell-based, human; conditions: VR-23 20 μM, 3 hours post-DT
# Source text: as §1, §2
# MCF10A (non-cancer breast) cells synchronized at G1/S by DT were released into complete medium for 3 hours in the absence (control) or presence of VR-23 (20 μM), followed by immunostaining with an antibody specific for cyclin E (FIG. 19A) or Plk1 or Plk4 (FIG. 19B). […]
# [2] = VR-23 30 mg/kg, paclitaxel 20 mg/kg
# [3] = 10 μM VR-23 after nocodazole release
# [4] = released from DT for 1-3 hours with VR-23
smiles,measurement,setting,value
"O=[N+]([O-])c1ccc(S(=O)(=O)N2CCN(c3ccnc4cc(Cl)ccc34)CC2)c([N+](=O)[O-])c1 [Compound 1, 7-Chloro-4-(4-(2,4-dinitrophenylsulfonyl)piperazin-1-yl)quinoline]",Microscopic Changes (liver),"[1]; ATH490 mice, VR-23, 30 mg/week, Paclitaxel, 20 mg/week",Largely (>95% of cases) normal
same,Effects on vital organs by their weights,"[1]; VR-23 30 mg/kg, 29 days post-treatment",did not cause any notable ill effects on vital organs
same,Mitotic index in the liver,[1]; [2],did not cause an increase in mitotic index
same,Spleen histology (H&E),[1]; [2],did not cause any notable toxicity to the spleen
same,"Kidney histology (H&E), nephrotoxicity","[1]; VR-23 30 mg/kg, paclitaxel 20 mg/kg, four weeks",did not cause any notable toxicity to the kidney
same,Levels of cyclins B and E,"HeLa S3 cells; 10 μM VR-23, 2 hour post-treatment",higher in the VR-23 treated cells than the control
same,Levels of cyclin E and cyclin A (Western blot),"HeLa S3 cells; 10 μM VR-23, (6)+6 hours",a high level of cyclin E and a lack of detectable cyclin A
same,Cell cycle arrest (immunoprecipitation),HeLa S3 cells; [3],caused cell cycle arrest prior to mitotic checkpoint
same,Cell cycle arrest point and Cdk1 status,HeLa S3 cells; [3],arrested at prometaphase through the inactivation of Cdk1
same,PARP1 cleavage (Western blot),"HeLa S3 cells; VR-23 in early-S, G2/M or late G1",showed PARP1 cleavage
same,Centrosomal localization of Plk4,HeLa S3 cells; [4],disrupted
same,Cyclin E localization,HeLa S3 cells; [4],localized to the centrosome by 3 hour post-DT
same,Plk1 localization,HeLa S3 cells; released from DT for 1 or 3 hours with VR-23,localized to the centrosome by 3 hour post-DT
same,Survival (% of the control),MCF7 cells; 1.5 μM of VR-23 alone,50.3%
same,Survival (% of the control),MCF7 cells; 3.1 μM of VR-23 alone,46.8%
same,IC50,"MCF7 cells; Homo sapiens, MCF7, read-out: IC50 MCF7",1200 ± 500 nM
same,Average colony number,MCF7 cells; VR-23 at 0.37 μM,25
same,Average colony number,MCF7 cells; VR-23 at 0.75 μM,27
same,Centrosome amplification in MCF10A,MCF10A non-cancer cells,did not cause centrosome amplification
